Results published in patent publication US5223421A, “Identification of methionine Nα-acetyltransferase” (The General Hospital Corporation, priority 1990, dated 1993).
“And” between values parts separate entries of the source, which are not always exact repeats. Equal values may be shown once. “Also recorded” adds a separate entry of the source. Read-outs that look alike come from different tables or passages of the source.

Experiments:
[1] = tested on: methionine N^α -acetyltransferase from S. cerevisiae; assay: Effect of protein modification reagents on enzyme activity; format: biochemical, Saccharomyces cerevisiae
Method: (§1) N^α -acetyltransferase activity was determined as previously described [Lee et al., J. Biol. Chem. 263:14948-14955 (1988)]. Aliquots of the lysate or chromatographic fractions were added to 1.5 ml Eppendorf tubes containing a reaction mixture of 50 mM HEPES, pH 7.4, 150 mM KCl, 1 mM DTT, 25 μM [^3 H] acetyl coenzyme A (0.5 μCi) and 50 μM synthetic peptide with an adjusted final volume of 100 μl. The assay mixture was incubated at 30° C. for 30 min. The reaction was stopped by adding 17 μl of 0.5M acetic acid and chilled in an ice bath. The reaction samples were filtered through SP membrane discs (Cuno) (previously pre-swollen in 0.5M acetic acid), and then washed three times with 1 ml of 0.5M acetic acid on a Millipore 1225 sampling manifold. The partially dried membranes were placed in scintillation cocktail and counted with a Beckman LS 3801 scintillation counter. One unit of activity was defined as the amount of enzyme able to transfer 1 pmol of [^3 H] acetyl group from [^3 H] acetyl coenzyme A to synthetic peptide per min under standard enzyme assay conditions defined above.
In order to determine the possible catalytic role for different types of amino acid residues in the enzyme, various chemical modifications were carried out (Table 10). Yeast methionine acetyltransferase was incubated with each reagent at 30° C. for 15 min, dialyzed against 50 mM HEPES, pH 7.4, 150 mM, 1 mM DTT at 4° C. for 3 to 4 hr. The enzyme activity was determined under standard assay conditions using PAI (N=3), assayed as described above.

yeast N^α AT = molecular target: T1, yeast N^α AT (Saccharomyces cerevisiae, UniProt P07347+P12945); assay: Effect of ions and reagents on yeast N^α AT (comparison in the discussion); format: biochemical
T1 sequence (P12945 2-854 limits assumed): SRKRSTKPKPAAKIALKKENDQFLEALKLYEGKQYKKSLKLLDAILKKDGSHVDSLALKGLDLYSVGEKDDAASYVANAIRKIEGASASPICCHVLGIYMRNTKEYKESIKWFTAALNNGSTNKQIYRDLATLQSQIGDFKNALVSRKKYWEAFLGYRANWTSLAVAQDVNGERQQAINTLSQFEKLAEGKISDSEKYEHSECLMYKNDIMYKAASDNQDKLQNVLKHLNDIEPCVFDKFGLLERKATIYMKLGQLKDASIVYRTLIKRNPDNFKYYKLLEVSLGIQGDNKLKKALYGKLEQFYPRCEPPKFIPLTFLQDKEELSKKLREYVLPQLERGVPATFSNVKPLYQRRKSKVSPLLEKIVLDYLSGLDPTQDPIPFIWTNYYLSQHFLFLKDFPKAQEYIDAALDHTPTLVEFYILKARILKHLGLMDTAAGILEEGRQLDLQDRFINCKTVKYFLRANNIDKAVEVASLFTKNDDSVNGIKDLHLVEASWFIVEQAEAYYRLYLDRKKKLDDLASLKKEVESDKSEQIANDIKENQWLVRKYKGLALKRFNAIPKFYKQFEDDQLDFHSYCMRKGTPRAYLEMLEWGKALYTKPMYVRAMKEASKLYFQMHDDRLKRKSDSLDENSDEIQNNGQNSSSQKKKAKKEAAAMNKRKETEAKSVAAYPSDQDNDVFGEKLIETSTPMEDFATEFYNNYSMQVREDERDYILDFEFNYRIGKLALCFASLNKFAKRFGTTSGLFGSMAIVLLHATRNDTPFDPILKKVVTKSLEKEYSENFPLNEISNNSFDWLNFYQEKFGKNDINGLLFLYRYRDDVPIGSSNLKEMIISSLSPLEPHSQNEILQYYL
T1 sequence (P07347 1-238): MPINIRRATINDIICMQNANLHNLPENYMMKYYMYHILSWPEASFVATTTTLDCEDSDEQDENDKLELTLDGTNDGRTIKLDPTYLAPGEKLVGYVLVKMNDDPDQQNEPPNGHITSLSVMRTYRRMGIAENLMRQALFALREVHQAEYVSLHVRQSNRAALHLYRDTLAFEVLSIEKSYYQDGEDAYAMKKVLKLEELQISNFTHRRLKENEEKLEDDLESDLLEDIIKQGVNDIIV

[2] = molecular target: T2, yeast methionine acetyltransferase (M-N^α AT) (Saccharomyces cerevisiae, UniProt Q06504); assay: Relative activity of yeast methionine acetyltransferase for N^α -acetylation of synthetic peptides (PAI analogues); format: biochemical; design: tested at 50 µM; settings: Table 5; mean ± SD (N=3-5); normalized to yeast proteinase A inhibitor 3
T2 construct: a crude yeast homogenate from the aaa1 mutant strain; endogenous in cells; host or cells: Saccharomyces cerevisiae strain T3A-a (aaa1), crude lysate
T2 sequence (Q06504 1-195): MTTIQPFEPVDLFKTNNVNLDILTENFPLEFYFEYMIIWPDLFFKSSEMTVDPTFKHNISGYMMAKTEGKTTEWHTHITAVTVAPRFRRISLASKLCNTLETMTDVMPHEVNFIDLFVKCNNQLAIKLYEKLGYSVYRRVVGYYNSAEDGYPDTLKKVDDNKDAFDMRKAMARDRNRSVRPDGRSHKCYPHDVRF
T2 sequence (Q12387 2-796 partner limits assumed): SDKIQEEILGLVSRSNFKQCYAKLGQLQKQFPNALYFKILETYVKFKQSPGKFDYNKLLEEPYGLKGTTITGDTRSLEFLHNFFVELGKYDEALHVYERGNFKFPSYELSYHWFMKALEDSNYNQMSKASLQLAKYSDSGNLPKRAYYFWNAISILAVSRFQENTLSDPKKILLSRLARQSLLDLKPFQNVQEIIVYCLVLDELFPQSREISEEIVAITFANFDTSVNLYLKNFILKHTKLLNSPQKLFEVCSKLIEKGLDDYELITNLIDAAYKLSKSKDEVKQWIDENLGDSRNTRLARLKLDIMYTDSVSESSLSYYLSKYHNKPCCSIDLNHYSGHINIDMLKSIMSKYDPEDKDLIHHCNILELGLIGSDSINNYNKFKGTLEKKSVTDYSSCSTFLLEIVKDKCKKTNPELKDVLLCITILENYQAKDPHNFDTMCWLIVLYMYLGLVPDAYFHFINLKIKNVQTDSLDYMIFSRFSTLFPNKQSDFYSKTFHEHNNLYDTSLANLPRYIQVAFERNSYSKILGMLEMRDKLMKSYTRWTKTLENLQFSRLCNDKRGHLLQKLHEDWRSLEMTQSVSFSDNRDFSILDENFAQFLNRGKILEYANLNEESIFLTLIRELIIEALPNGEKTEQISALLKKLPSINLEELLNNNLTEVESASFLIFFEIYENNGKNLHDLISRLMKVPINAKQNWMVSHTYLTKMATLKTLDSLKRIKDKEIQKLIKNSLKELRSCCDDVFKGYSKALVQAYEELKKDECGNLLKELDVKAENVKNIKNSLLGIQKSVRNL
Method: as §1
Proteinase A inhibitor 3 (PAI) (Tsunasawa et al., Methods Enzymol. 106:165-170 (1984); Wold, F., Trends Biochem Sci. 9:256-267 (1984); Driessen et al., CRC Crit. Rev. Biochem 18:281-325 (1985); Mullen et al., EMBO J. 8:2067-2075 (1989); Lee et al., J. Bacteriol. 171:5795-5802 (1989); Hershko et al., Proc. Natl. Acad. Sci. USA 81:7021-7025 (1984); Bachmair et al., Science 234:179-186 (1986); Arfin et al., Biochemistry 27:7979-7984 (1988); Persson et al., Eur. J. Biochem. 152:523-527 (1985); Huang al., Biochemistry 26:8242-8246 (1987); Lee et al., J. Biol. Chem. 263:14948-14955 (1988); Kamitani et al., J. Biol. Chem. 264:13188-13193 (1989)) is the only known yeast protein which is acetylated at its NH2 -terminal methionine residue (Biedermann et al., Carlsberg Res. Commun. 45:225-235 (1980)). […] The numbers in parentheses refer to the residue numbers, and the letters in parentheses refer to the amino acid sequence Abbreviations are as in FIG. 1. Data are reported as mean activity ±SD (N=3-5) and are normalized to the activity of the homogenate towards yeast proteinase A inhibitor 3. The sequence of this protein is:
Thus, by using PAI, its analogues and other peptides, the structural features of M-N^α AT substrates were studied. […] Only three of nineteen analogues were acetylated, although the efficiency of their acetylation varied from 9-55% (Asp>Glu>Gln). Although it was shown previously that iso-cytochrome c variant proteins (Met-Ile-Arg - - -, Met-Ile-Lys - - -, Met-Met-Asn - - -) can be N^α -acetylated in vivo (Tsunasawa et al., J. Biol. Chem. 260:5382-5391 (1985)), synthetic peptides mimicking the NH2 -terminal 24 amino acid residues of these iso-cytochrome c variants were not acetylated by the yeast M-N^αAT.

[3] = reagent 10.0 mM, 30° C. 15 min, then dialyzed, substrate PAI (N=3)

Q: What does the source list for `OCCS` [2-mercaptoethanol]?
A: effect of reagent on M-N^α AT activity ([1]; concentration not given): did not affect the enzyme activity; effect of reagent on M-N^α AT activity ([1]; concentration not given, listed as β-mercaptoethanol): inability; Enzyme Activity (%) [1, 3]: 96%; effect of reagent on N^α AT activity (yeast N^α AT): inability

Q: “[Trp2 ]PROTEINASE A INHIBITOR 3 (1-24) (Yeast): synthetic PAI analogue with substitution at penultimate position (Trp) (MWTDQQKVSEIFQSSKEKLQGDAK; UniProt P01094 1-24, looked up, variant N2W)” was tested. Which “Activity (%)” value [2] did it give?
A: 0%

Q: For “[His2 ]PROTEINASE A INHIBITOR 3 (1-24) (Yeast): synthetic PAI analogue with substitution at penultimate position (His) (MHTDQQKVSEIFQSSKEKLQGDAK; UniProt P01094 1-24, looked up, variant N2H)”, which “Activity (%)” value [2] is on record?
A: 0%

Q: Which “Activity (%)” value [2] does the source give for “[Val2 ]PROTEINASE A INHIBITOR 3 (1-24) (Yeast): synthetic PAI analogue with substitution at penultimate position (Val) (MVTDQQKVSEIFQSSKEKLQGDAK; UniProt P01094 1-24, looked up, variant N2V)” here?
A: 0%

Q: “[Gln2 ]PROTEINASE A INHIBITOR 3 (1-24) (Yeast): synthetic PAI analogue with substitution at penultimate position (Gln) (MQTDQQKVSEIFQSSKEKLQGDAK; UniProt P01094 1-24, looked up, variant N2Q)” was tested. Which “Activity (%)” value [2] did it give?
A: 9 ± 3%

Q: For “[Phe2 ]PROTEINASE A INHIBITOR 3 (1-24) (Yeast): synthetic PAI analogue with substitution at penultimate position (Phe) (MFTDQQKVSEIFQSSKEKLQGDAK; UniProt P01094 1-24, looked up, variant N2F)”, which “Activity (%)” value [2] is on record?
A: 0%

Q: How did the “effect of reagent on M-N^α AT activity” value ([1]; 1 mM) turn out when `O=C(O)c1cc[c]([Hg][Cl])cc1` [pCMB, p-chloromercuribenzoate] was run?
A: without effect

Q: And the “effect of reagent on M-N^α AT activity” value ([1]; 10 mM)?
A: partial inactivation

Q: What about the “effect of reagent on M-N^α AT activity” value ([1]; concentration not given) of the same compound?
A: inability

Q: And the “Enzyme Activity (%)” value ([1]; reagent 1.0 mM, 30° C. 15 min, then dialyzed, substrate PAI (N=3))?
A: 94%

Q: What about the “Enzyme Activity (%)” value [1, 3] of the same compound?
A: 25%

Q: And the “effect of reagent on N^α AT activity” value (yeast N^α AT)?
A: inability

Q: How did the “Enzyme Activity (%)” value [1] turn out when `O=C(O)CI` [IAA, iodoacetic acid] was run?
A: 102% and 75%

Q: What about the “effect of reagent on N^α AT activity” value (yeast N^α AT) of the same compound?
A: inability

Q: For `OC(CS)C(O)CS` (stereo not shown) [DTT], which “effect of reagent on M-N^α AT activity” value ([1]; concentration not given) is on record?
A: did not affect the enzyme activity; also recorded: inability

Q: What about the “Enzyme Activity (%)” value [1, 3] of the same compound?
A: 95%

Q: And the “effect of reagent on N^α AT activity” value (yeast N^α AT)?
A: inability

Q: “[Met2 ]PROTEINASE A INHIBITOR 3 (1-24) (Yeast): synthetic PAI analogue with substitution at penultimate position (Met) (MMTDQQKVSEIFQSSKEKLQGDAK; UniProt P01094 1-24, looked up, variant N2M)” was tested. Which “Activity (%)” value [2] did it give?
A: 0%

Q: For “[Ile2 ]PROTEINASE A INHIBITOR 3 (1-24) (Yeast): synthetic PAI analogue with substitution at penultimate position (Ile) (MITDQQKVSEIFQSSKEKLQGDAK; UniProt P01094 1-24, looked up, variant N2I)”, which “Activity (%)” value [2] is on record?
A: 0%

Q: With “[Asp2 ]PROTEINASE A INHIBITOR 3 (1-24) (Yeast): synthetic PAI analogue with substitution at penultimate position (Asp) (MDTDQQKVSEIFQSSKEKLQGDAK; UniProt P01094 1-24, looked up, variant N2D)” as the compound, how does the “Activity (%)” value [2] read?
A: 55 ± 5%

Q: How did the “Activity (%)” value [2] turn out when “[Pro2 ]PROTEINASE A INHIBITOR 3 (1-24) (Yeast): synthetic PAI analogue with substitution at penultimate position (Pro) (MPTDQQKVSEIFQSSKEKLQGDAK; UniProt P01094 1-24, looked up, variant N2P)” was run?
A: 0%

Q: “[Gly2 ]PROTEINASE A INHIBITOR 3 (1-24) (Yeast): synthetic PAI analogue with substitution at penultimate position (Gly) (MGTDQQKVSEIFQSSKEKLQGDAK; UniProt P01094 1-24, looked up, variant N2G)” was tested. Which “Activity (%)” value [2] did it give?
A: 0%
